{"source": "ChEMBL document CHEMBL5518172", "about": "“Discovery of hydroxamate as a promising scaffold dually inhibiting metallo- and serine-β-lactamases” (Eur J Med Chem, 2024)", "key": {"Bacteria [1]": {"system": "Bacteria", "assay": "Irreversible inhibition of recombinant metallo-beta-lactamase IMP-1 (unknown origin) expressed in Escherichia coli BL21 (DE3) cells using cefazolin as substrate assessed as reduction in residual activity at 5 uM preincubated for 6 hrs followed by dialysis and measured after 24 hrs"}, "[2]": {"target": "Metallo-beta-lactamase type 2 (Bacteria) (UniProt C7C422)", "sequence (C7C422 whole entry)": "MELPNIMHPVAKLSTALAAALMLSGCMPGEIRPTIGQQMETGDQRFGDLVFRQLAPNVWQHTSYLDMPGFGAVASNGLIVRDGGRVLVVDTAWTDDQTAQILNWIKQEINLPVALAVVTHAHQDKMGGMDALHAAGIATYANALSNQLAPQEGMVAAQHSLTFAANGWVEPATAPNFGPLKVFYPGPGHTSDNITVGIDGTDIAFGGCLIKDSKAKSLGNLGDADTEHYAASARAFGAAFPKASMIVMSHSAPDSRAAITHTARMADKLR", "assay": "Inhibition of recombinant NDM-1 (unknown origin) expressed in Escherichia coli BL21 (DE3) cells using meropenem as substrate at 20 uM by spectrometric analysis relative to control"}, "[3]": {"target": "Metallo-beta-lactamase type 2 (Bacteria) (UniProt C7C422)", "assay": "Destabilization of recombinant NDM-1 (unknown origin) expressed in Escherichia coli BL21 (DE3) cells assessed as thermal stabilization by measuring melting temperature at 50 uM incubated under 25 to 80 degreeC by SYPRO orange dye based thermal shift assay (reference value: 52.6 degreeC)"}, "Escherichia coli [4]": {"system": "Escherichia coli", "assay": "Synergistic antibacterial activity against Escherichia coli BL21 (DE3) harboring serine beta lactamase OXA-48 assessed as reduction in meropenem MIC upto 256 microg/ml in presence of meropenem by microdilution checkerboard assay", "format": "functional, organism-based", "settings": "dose <= 256.0 µg/ml"}, "Bacteria [5]": {"system": "Bacteria", "assay": "Irreversible inhibition of recombinant serine beta lactamase KPC-2 (unknown origin) expressed in Escherichia coli BL21 (DE3) cells using cefazolin as substrate assessed as reduction in residual activity at 5 uM preincubated for 6 hrs followed by dialysis and measured after 24 hrs"}, "Bacteria [6]": {"system": "Bacteria", "assay": "Inhibition of recombinant serine beta lactamase KPC-2 (unknown origin) expressed in Escherichia coli BL21 (DE3) cells assessed as reduction in residual activity incubated for 360 min", "settings": "dose 0.25-5 µM"}, "[7]": {"assay": "Non-competitive inhibition of recombinant serine beta lactamase KPC-2 (unknown origin) expressed in Escherichia coli BL21 (DE3) cells using meropenem as substrate assessed as inhibition constant by Lineweaver-Burk plot analysis", "parameters": "species or system Bacteria"}, "Escherichia coli [8]": {"system": "Escherichia coli", "assay": "Synergistic antibacterial activity against Escherichia coli clinical isolate 10 assessed as decrease in bacterial colony at 128 microg/ml incubated for 12 hrs in presence of meropenem by imaging analysis", "format": "functional, organism-based", "settings": "dose 128.0 µg/ml"}, "Escherichia coli [9]": {"system": "Escherichia coli", "assay": "Synergistic antibacterial activity against Escherichia coli clinical isolate 08 assessed as meropenem MIC at 64 microg/ml measured after 16 hrs by CLSI protocol based broth microdilution method (reference value: 128 microg/ml)", "format": "functional", "settings": "dose 64 µg/ml"}, "Escherichia coli [10]": {"system": "Escherichia coli", "assay": "Synergistic antibacterial activity against Escherichia coli BL21 (DE3) harboring metallo-beta-lactamase IMP-1 assessed as meropenem MIC at 64 microg/ml measured after 16 hrs by CLSI protocol based broth microdilution method (reference value: 64 microg/ml)", "format": "functional", "settings": "dose 64 µg/ml"}, "[11]": {"target": "Metallo-beta-lactamase type 2 (Bacteria) (UniProt C7C422)", "assay": "Inhibition of recombinant NDM-1 (unknown origin) expressed in Escherichia coli BL21 (DE3) cells using meropenem as substrate assessed as reduction in residual activity", "settings": "dose 0.075-20 µM"}, "Escherichia coli [12]": {"system": "Escherichia coli", "assay": "Antibacterial activity against Escherichia coli BL21 (DE3) harboring metallo-beta-lactamase IMP-1 assessed as inhibition of bacterial growth upto 512 microg/ml by microdilution checkerboard assay", "format": "functional, organism-based", "settings": "dose <= 512.0 µg/ml"}, "Bacteria [13]": {"system": "Bacteria", "assay": "Inhibition of recombinant serine beta lactamase KPC-2 (unknown origin) expressed in Escherichia coli BL21 (DE3) cells using meropenem as substrate at 20 uM by spectrometric analysis relative to control"}, "Bacteria [14]": {"system": "Bacteria", "assay": "Inhibition of recombinant IMP-1 (unknown origin) expressed in Escherichia coli BL21 (DE3) cells assessed as reduction in residual activity at 0.25 to 5 uM", "settings": "dose 0.25-5 µM, time 20.0 hrs, TDE = time-dependent effect"}, "Bacteria [15]": {"system": "Bacteria", "assay": "Destabilization of recombinant serine beta lactamase OXA-48 (unknown origin) expressed in Escherichia coli BL21 (DE3) cells assessed as thermal stabilization by measuring melting temperature at 50 uM incubated under 25 to 80 degreeC by SYPRO orange dye based thermal shift assay (reference value: 54.6 degreeC)"}, "Escherichia coli [16]": {"system": "Escherichia coli", "assay": "Antibacterial activity against Escherichia coli harboring NDM-1 infected in Kunming mouse model assessed as reduction in bacterial load in liver at 20 mg/kg, ip", "format": "functional, organism-based"}, "Escherichia coli [17]": {"system": "Escherichia coli", "assay": "Synergistic antibacterial activity against Escherichia coli harboring serine beta-lactamase OXA-48 infected in Kunming mouse model assessed as reduction in bacterial load in spleen at 20 mg/kg, ip co-administered with 1 mg/kg of meropenem", "format": "functional, organism-based"}, "Escherichia coli [18]": {"system": "Escherichia coli", "assay": "Synergistic antibacterial activity against Escherichia coli BL21 (DE3) harboring NDM-1 assessed as meropenem MIC at 64 microg/ml measured after 16 hrs by CLSI protocol based broth microdilution method (reference value: 256 microg/ml)", "format": "functional", "settings": "dose 64 µg/ml"}, "Bacteria [19]": {"system": "Bacteria", "assay": "Inhibition of recombinant IMP-1 (unknown origin) expressed in Escherichia coli BL21 (DE3) cells assessed as reduction in residual activity incubated for 20 hrs", "settings": "dose 0.25-5 µM"}, "[20]": {"assay": "Inhibition of recombinant serine beta lactamase OXA-48 (unknown origin) expressed in Escherichia coli BL21 (DE3) cells using meropenem as substrate by spectrometric analysis", "parameters": "species or system Bacteria"}, "[21]": {"target": "Metallo-beta-lactamase type 2 (Bacteria) (UniProt C7C422)", "assay": "Irreversible inhibition of recombinant NDM-1 (unknown origin) expressed in Escherichia coli BL21 (DE3) cells using meropenem as substrate assessed as reduction in residual activity at 5 uM preincubated for 6 hrs followed by dialysis and measured after 24 hrs"}, "Escherichia coli [22]": {"system": "Escherichia coli", "assay": "Synergistic antibacterial activity against Escherichia coli clinical isolate 06 assessed as fold decrease in meropenem MIC at 64 microg/ml measured after 16 hrs by CLSI protocol based broth microdilution method", "format": "functional", "settings": "dose 64 µg/ml"}, "Bacteria [23]": {"system": "Bacteria", "assay": "Inhibition of recombinant serine beta lactamase OXA-48 (unknown origin) expressed in Escherichia coli BL21 (DE3) cells assessed as maximal inhibition at 5 uM measured after 0.5 hrs"}, "Escherichia coli [24]": {"system": "Escherichia coli", "assay": "Antibacterial activity against Escherichia coli BL21 (DE3) harboring NDM-1 assessed as inhibition of bacterial growth upto 512 microg/ml by microdilution checkerboard assay", "format": "functional, organism-based", "settings": "dose <= 512.0 µg/ml"}, "Escherichia coli [25]": {"system": "Escherichia coli", "assay": "Synergistic antibacterial activity against Escherichia coli harboring NDM-1 infected in Kunming mouse model assessed as reduction in bacterial load in spleen at 20 mg/kg, ip co-administered with 10 mg/kg of meropenem", "format": "functional, organism-based"}, "Escherichia coli [26]": {"system": "Escherichia coli", "assay": "Synergistic antibacterial activity against Escherichia coli clinical isolate 24 assessed as meropenem MIC at 64 microg/ml measured after 16 hrs by CLSI protocol based broth microdilution method (reference value: 256 microg/ml)", "format": "functional", "settings": "dose 64 µg/ml"}, "Bacteria [27]": {"system": "Bacteria", "assay": "Inhibition of recombinant serine beta lactamase KPC-2 (unknown origin) expressed in Escherichia coli BL21 (DE3) cells assessed as reduction in residual activity at 0.25 to 5 uM", "settings": "dose 0.25-5 µM, time 360.0 min, TDE = time-dependent effect"}, "Bacteria [28]": {"system": "Bacteria", "assay": "Inhibition of recombinant serine beta lactamase KPC-2 (unknown origin) expressed in Escherichia coli BL21 (DE3) cells using cefazolin as substrate assessed as residual activity at 20 uM relative to control"}, "Escherichia coli [29]": {"system": "Escherichia coli", "assay": "Synergistic antibacterial activity against Escherichia coli clinical isolate 10 assessed as fold decrease in meropenem MIC at 64 microg/ml measured after 16 hrs by CLSI protocol based broth microdilution method", "format": "functional", "settings": "dose 64 µg/ml"}, "Bacteria [30]": {"system": "Bacteria", "assay": "Inhibition of recombinant metallo-beta-lactamase ImiS (unknown origin) expressed in Escherichia coli BL21 (DE3) cells using meropenem as substrate at 20 uM by spectrometric analysis relative to control"}}, "note": "Calls of active or inactive are those of the source. No cut-off for these calls is given here."}
{"smiles": "O=C(CCCc1ccccc1)NOC(=O)OCc1ccccc1", "values": [{"measurement": "inhibition", "setting": "Bacteria [1]", "result": "Active"}, {"measurement": "inhibition", "setting": "[2]", "result": "> 90", "unit": "%"}, {"measurement": "Tm", "setting": "[3]", "result": 49.8, "unit": "°C"}, {"measurement": "Activity", "setting": "Escherichia coli [4]", "result": "Active"}, {"measurement": "inhibition", "setting": "Bacteria [5]", "result": "Active"}, {"measurement": "inhibition", "setting": "Bacteria [6]", "result": "Dose-Dependent Effect"}, {"measurement": "Ki", "setting": "[7]", "result": 550, "unit": "nM"}, {"measurement": "Activity", "setting": "Escherichia coli [8]", "result": "Active"}, {"measurement": "MIC", "setting": "Escherichia coli [9]", "result": 64, "unit": "µg/mL"}, {"measurement": "MIC", "setting": "Escherichia coli [10]", "result": 16, "unit": "µg/mL"}, {"measurement": "inhibition", "setting": "[11]", "result": "Dose-Dependent Effect"}, {"measurement": "Activity", "setting": "Escherichia coli [12]", "result": "inactive"}, {"measurement": "inhibition", "setting": "Bacteria [13]", "result": "> 90", "unit": "%"}, {"measurement": "inhibition", "setting": "Bacteria [14]", "result": "Tde"}, {"measurement": "Tm", "setting": "Bacteria [15]", "result": 53.9, "unit": "°C"}, {"measurement": "Activity", "setting": "Escherichia coli [16]", "result": "inactive"}, {"measurement": "Activity", "setting": "Escherichia coli [17]", "result": "Active"}, {"measurement": "MIC", "setting": "Escherichia coli [18]", "result": 32, "unit": "µg/mL"}, {"measurement": "inhibition", "setting": "Bacteria [19]", "result": "Dose-Dependent Effect"}, {"measurement": "IC50", "setting": "[20]", "result": 1010, "unit": "nM"}, {"measurement": "inhibition", "setting": "[21]", "result": "Active"}, {"measurement": "fold change (FC)", "setting": "Escherichia coli [22]", "result": 2}, {"measurement": "inhibition", "setting": "Bacteria [23]", "result": "Active"}, {"measurement": "Activity", "setting": "Escherichia coli [24]", "result": "inactive"}, {"measurement": "Activity", "setting": "Escherichia coli [25]", "result": "Active"}, {"measurement": "MIC", "setting": "Escherichia coli [26]", "result": 128, "unit": "µg/mL"}, {"measurement": "inhibition", "setting": "Bacteria [27]", "result": "Tde"}, {"measurement": "Activity", "setting": "Bacteria [28]", "result": "< 10", "unit": "%"}, {"measurement": "fold change (FC)", "setting": "Escherichia coli [29]", "result": 2}, {"measurement": "inhibition", "setting": "Bacteria [30]", "result": "< 42", "unit": "%"}]}
